In the supplement of paper PMC9013687:
± gives the standard deviation of the averaged measurements.

Experiments:
Danio rerio embryo [1] = details: exposure time: 4 dpf
Experimental: (§1)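 Zebrafish embryos (UFZ-OBI strain) were exposed from 2 hpf for 48 h (2 dpf) or 96 h (4 dpf) at 28 °C; spontaneous tail coiling was scored at 25 hpf. Morphological features from automated image analysis (FishInspector), heart rate and locomotor response were fitted with drc models. Quantal endpoints were dichotomised at 2.5 SD from controls and fitted with a log-logistic model; heart rate, pigmentation and STC were normalised to the replicate control mean. Betamethasone was tested as betamethasone dipropionate, diflorasone as diflorasone diacetate.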

Danio rerio embryo [2] = system: Danio rerio embryo
Experimental: as §1

Danio rerio embryo [3] = test: EC50 Head size_Decrease; details: exposure time: 4 dpf
Experimental: as §1

Danio rerio embryo [4] = test: EC50 Body length_Decrease; details: exposure time: 2 dpf
Experimental: as §1

Danio rerio embryo [5] = test: EC50 Bladder size_Decrease; details: exposure time: 4 dpf
Experimental: as §1

Danio rerio embryo [6] = test: EC10 Lack of SB; higher = less potent; details: exposure time: 4 dpf
Experimental: as §1

Danio rerio embryo [7] = test: EC20 Lack of SB; higher = less potent; details: exposure time: 4 dpf
Experimental: as §1

Danio rerio embryo [8] = test: EC20 Any effect; higher = less potent
Experimental: as §1

Danio rerio embryo [9] = test: EC10 Any effect; higher = less potent
Experimental: as §1

Danio rerio embryo [10] = test: EC20 Head size_Decrease; higher = less potent; details: exposure time: 4 dpf
Experimental: as §1

Danio rerio embryo [11] = test: EC10 Head size_Decrease; higher = less potent; details: exposure time: 4 dpf
Experimental: as §1

Danio rerio embryo [12] = test: EC20 Body length_Decrease; higher = less potent; details: exposure time: 2 dpf
Experimental: as §1

Danio rerio embryo [13] = test: EC10 Body length_Decrease; higher = less potent; details: exposure time: 2 dpf
Experimental: as §1

Danio rerio embryo [14] = test: EC10 Bladder size_Decrease; higher = less potent; details: exposure time: 4 dpf
Experimental: as §1

Danio rerio embryo [15] = test: EC20 Bladder size_Decrease; higher = less potent; details: exposure time: 4 dpf
Experimental: as §1

Danio rerio embryo [16] = test: spontaneous tail coiling frequency (coils/min/embryo); higher = more spontaneous movement; details: 25 hpf
Experimental: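 Spontaneous tail coilings of zebrafish embryos exposed from 2 hpf were recorded at 24-25 hpf in 1-min videos and detected by a KNIME workflow from grey-value variance. Betamethasone was tested as the dipropionate, diflorasone as the diacetate.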

Danio rerio embryo [17] = test: EC50 Eye size_Decrease
Experimental: as §1

Danio rerio embryo [18] = test: EC50 Curvature_Increase
Experimental: as §1

Danio rerio embryo [19] = test: EC50 Pericard size_Increase; details: exposure time: 4 dpf
Experimental: as §1

Danio rerio embryo [20] = test: EC50 Head trunk angle_Decrease; details: exposure time: 2 dpf
Experimental: as §1

Danio rerio embryo [21] = test: EC50 Eye-jaw distance_Decrease; details: exposure time: 4 dpf
Experimental: as §1

Danio rerio embryo [22] = test: EC50 Otolith-eye distance_Decrease; details: exposure time: 4 dpf
Experimental: as §1

Danio rerio embryo [23] = test: EC20 Eye size_Decrease; higher = less potent
Experimental: as §1

Danio rerio embryo [24] = test: EC10 Eye size_Decrease; higher = less potent
Experimental: as §1

Danio rerio embryo [25] = test: EC10 Curvature_Increase; higher = less potent
Experimental: as §1

Danio rerio embryo [26] = test: EC20 Curvature_Increase; higher = less potent
Experimental: as §1

Danio rerio embryo [27] = test: EC20 Pericard size_Increase; higher = less potent; details: exposure time: 4 dpf
Experimental: as §1

Danio rerio embryo [28] = test: EC10 Pericard size_Increase; higher = less potent; details: exposure time: 4 dpf
Experimental: as §1

Danio rerio embryo [29] = test: EC10 Head trunk angle_Decrease; higher = less potent; details: exposure time: 2 dpf
Experimental: as §1

Danio rerio embryo [30] = test: EC20 Eye-jaw distance_Decrease; higher = less potent; details: exposure time: 4 dpf
Experimental: as §1

Danio rerio embryo [31] = test: EC10 Eye-jaw distance_Decrease; higher = less potent; details: exposure time: 4 dpf
Experimental: as §1

Danio rerio embryo [32] = test: EC20 Head trunk angle_Decrease; higher = less potent; details: exposure time: 2 dpf
Experimental: as §1

Danio rerio embryo [33] = test: EC20 Otolith-eye distance_Decrease; higher = less potent; details: exposure time: 4 dpf
Experimental: as §1

Danio rerio embryo [34] = test: EC10 Otolith-eye distance_Decrease; higher = less potent; details: exposure time: 4 dpf
Experimental: as §1

## COc1cccc2c1C(=O)c1c(O)c3c(c(O)c1C2=O)C[C@@](O)(C(C)=O)C[C@@H]3O[C@H]1C[C@H](N)[C@H](O)[C@H](C)O1 [Daunorubicin]
Danio rerio embryo [1]
  EC50 Lack of SB: 72300 nM
Danio rerio embryo [2]; exposure time: 2 dpf
  EC50 Any effect: 185000 nM
Danio rerio embryo [2]; exposure time: 4 dpf
  EC50 Any effect: 90600 nM
Danio rerio embryo [3]
  EC50 Head size Decrease: 43400 nM
Danio rerio embryo [4]
  EC50 Body length Decrease: 106000 nM
Danio rerio embryo [5]
  EC50 Bladder size Decrease: 46800 nM
Danio rerio embryo [6]
  EC10 Lack of SB: 13300 nM
Danio rerio embryo [7]
  EC20 Lack of SB: 24900 nM
Danio rerio embryo [8]; exposure time: 2 dpf
  EC20 Any effect: 68600 nM
Danio rerio embryo [8]; exposure time: 4 dpf
  EC20 Any effect: 87600 nM
Danio rerio embryo [9]; exposure time: 2 dpf
  EC10 Any effect: 38300 nM
Danio rerio embryo [9]; exposure time: 4 dpf
  EC10 Any effect: 85900 nM
Danio rerio embryo [10]
  EC20 Head size Decrease: 19700 nM
Danio rerio embryo [11]
  EC10 Head size Decrease: 12400 nM
Danio rerio embryo [12]
  EC20 Body length Decrease: 80400 nM
Danio rerio embryo [13]
  EC10 Body length Decrease: 68500 nM
Danio rerio embryo [14]
  EC10 Bladder size Decrease: 9820 nM
Danio rerio embryo [15]
  EC20 Bladder size Decrease: 17500 nM
Danio rerio embryo [16]; 17.5 µM
  spontaneous tail coiling frequency: 2.64
Danio rerio embryo [16]; 23.3 µM
  spontaneous tail coiling frequency: 1.8
Danio rerio embryo [16]; 26.3 µM
  spontaneous tail coiling frequency: 3.47
Danio rerio embryo [16]; 35 µM
  spontaneous tail coiling frequency: 2.25
Danio rerio embryo [16]; 39.4 µM
  spontaneous tail coiling frequency: 2.69
Danio rerio embryo [16]; 52.5 µM
  spontaneous tail coiling frequency: 2.33
Danio rerio embryo [16]; 59.1 µM
  spontaneous tail coiling frequency: 2.7
Danio rerio embryo [16]; 78.8 µM
  spontaneous tail coiling frequency: 2.14
Danio rerio embryo [16]; 88.7 µM
  spontaneous tail coiling frequency: 2.85

## COC(=O)Nc1nc2cc(Sc3ccccc3)ccc2[nH]1 [Fenbendazole]
Danio rerio embryo [1]
  EC50 Lack of SB: 50 nM
Danio rerio embryo [2]; exposure time: 2 dpf
  EC50 Any effect: 32 nM
Danio rerio embryo [2]; exposure time: 4 dpf
  EC50 Any effect: 70 nM
Danio rerio embryo [17]; exposure time: 2 dpf
  EC50 Eye size Decrease: 51 nM
Danio rerio embryo [17]; exposure time: 4 dpf
  EC50 Eye size Decrease: 82 nM
Danio rerio embryo [18]; exposure time: 2 dpf
  EC50 Curvature Increase: 38 nM
Danio rerio embryo [18]; exposure time: 4 dpf
  EC50 Curvature Increase: 82 nM
Danio rerio embryo [4]
  EC50 Body length Decrease: 45 nM
Danio rerio embryo [5]
  EC50 Bladder size Decrease: 49 nM
Danio rerio embryo [19]
  EC50 Pericard size Increase: 85 nM
Danio rerio embryo [20]
  EC50 Head trunk angle Decrease: 41 nM
Danio rerio embryo [21]
  EC50 Eye-jaw distance Decrease: 81 nM
Danio rerio embryo [22]
  EC50 Otolith-eye distance Decrease: 89 nM
Danio rerio embryo [6]
  EC10 Lack of SB: 46 nM
Danio rerio embryo [7]
  EC20 Lack of SB: 47 nM
Danio rerio embryo [8]; exposure time: 2 dpf
  EC20 Any effect: 19 nM
Danio rerio embryo [8]; exposure time: 4 dpf
  EC20 Any effect: 56 nM
Danio rerio embryo [9]; exposure time: 2 dpf
  EC10 Any effect: 14 nM
Danio rerio embryo [9]; exposure time: 4 dpf
  EC10 Any effect: 49 nM
Danio rerio embryo [23]; exposure time: 2 dpf
  EC20 Eye size Decrease: 37 nM
Danio rerio embryo [23]; exposure time: 4 dpf
  EC20 Eye size Decrease: 70 nM
Danio rerio embryo [24]; exposure time: 2 dpf
  EC10 Eye size Decrease: 31 nM
Danio rerio embryo [24]; exposure time: 4 dpf
  EC10 Eye size Decrease: 64 nM
Danio rerio embryo [25]; exposure time: 2 dpf
  EC10 Curvature Increase: 22 nM
Danio rerio embryo [25]; exposure time: 4 dpf
  EC10 Curvature Increase: 62 nM
Danio rerio embryo [26]; exposure time: 2 dpf
  EC20 Curvature Increase: 27 nM
Danio rerio embryo [26]; exposure time: 4 dpf
  EC20 Curvature Increase: 68 nM
Danio rerio embryo [12]
  EC20 Body length Decrease: 35 nM
Danio rerio embryo [13]
  EC10 Body length Decrease: 30 nM
Danio rerio embryo [14]
  EC10 Bladder size Decrease: 45 nM
Danio rerio embryo [15]
  EC20 Bladder size Decrease: 47 nM
Danio rerio embryo [27]
  EC20 Pericard size Increase: 73 nM
Danio rerio embryo [28]
  EC10 Pericard size Increase: 67 nM
Danio rerio embryo [29]
  EC10 Head trunk angle Decrease: 37 nM
Danio rerio embryo [30]
  EC20 Eye-jaw distance Decrease: 62 nM
Danio rerio embryo [31]
  EC10 Eye-jaw distance Decrease: 53 nM
Danio rerio embryo [32]
  EC20 Head trunk angle Decrease: 38 nM
Danio rerio embryo [33]
  EC20 Otolith-eye distance Decrease: 77 nM
Danio rerio embryo [34]
  EC10 Otolith-eye distance Decrease: 70 nM
Danio rerio embryo [16]; 0.013 µM
  spontaneous tail coiling frequency: 0.94
Danio rerio embryo [16]; 0.017 µM
  spontaneous tail coiling frequency: 2.28
Danio rerio embryo [16]; 0.02 µM
  spontaneous tail coiling frequency: 1.96
Danio rerio embryo [16]; 0.03 µM
  spontaneous tail coiling frequency: 1.28
Danio rerio embryo [16]; 0.0319628 µM
  spontaneous tail coiling frequency: 4.8 ± 2.3
Danio rerio embryo [16]; 0.045 µM
  spontaneous tail coiling frequency: 1.58
Danio rerio embryo [16]; 0.0477056 µM
  spontaneous tail coiling frequency: 5.09 ± 2.4
Danio rerio embryo [16]; 0.048 µM
  spontaneous tail coiling frequency: 2.73
Danio rerio embryo [16]; 0.064 µM
  spontaneous tail coiling frequency: 2.5
Danio rerio embryo [16]; 0.067 µM
  spontaneous tail coiling frequency: 4.88 ± 1.5
Danio rerio embryo [16]; 0.0715584 µM
  spontaneous tail coiling frequency: 6.17
Danio rerio embryo [16]; 0.084 µM
  spontaneous tail coiling frequency: 2.72
Danio rerio embryo [16]; 0.087 µM
  spontaneous tail coiling frequency: 4.84 ± 1.5
Danio rerio embryo [16]; 0.107 µM
  spontaneous tail coiling frequency: 4.95 ± 0.81
